Measurements reported in ChEMBL document CHEMBL1154510, “A new antiangiogenic C24 oxylipin from the soft coral Sinularia numerosa” (Bioorg Med Chem, 2009).
Calls of active or inactive are those of the source. The rule behind the calls is not given here.

Legend:
Type in all cases: functional, cell-based
EA.hy 926 [1] = experiment: Inhibition of tube formation in human EAhy926 cells at 10 uM pre-incubated for 12 hrs measured after 24 hrs by phase-contrast microscopy
EA.hy 926 [2] = experiment: Inhibition of tube formation in human EAhy926 cells at 25 uM after 24 hrs by phase-contrast microscopy
EA.hy 926 [3] = experiment: Inhibition of tube formation in human EAhy926 cells after 24 hrs by phase-contrast microscopy
EA.hy 926 [4] = experiment: Inhibition of tube formation in human EAhy926 cells at 50 uM after 24 hrs by phase-contrast microscopy
EA.hy 926 [5] = experiment: Inhibition of tube formation in human EAhy926 cells at 20 uM after 24 hrs by phase-contrast microscopy
EA.hy 926 [6] = experiment: Inhibition of tube formation in human EAhy926 cells at 40 uM after 24 hrs by phase-contrast microscopy

CC1(COc2ccc(CC3SC(=O)NC3=O)cc2)CCCCC1 (stereo not given)
Activity (EA.hy 926 [1]): Active

CCCCC/C=C\C[C@@H](O)/C=C/C=C/C=C\[C@@H](O)CCCC(=O)O
Activity (EA.hy 926 [1]): Active

CCCCC/C=C/C=C/C(O)CCCCCCCC(=O)O (stereo not given)
Activity (EA.hy 926 [2]): Active

CCCCC/C=C\C=C\C(O)C/C=C\C/C=C\C/C=C\CCCCC(=O)O (stereo not given)
Activity (EA.hy 926 [1]): Active
Activity (EA.hy 926 [3]): Dose-dependent effect

CC/C=C\C/C=C\C/C=C\C/C=C\C/C=C\CCCC(=O)O
Activity (EA.hy 926 [4]): inactive

CC/C=C\C/C=C\C/C=C\C/C=C\C/C=C\C/C=C\CCC(=O)O
Activity (EA.hy 926 [4]): inactive

Cc1cccc(Nc2cc(Cl)nc(SCC(=O)O)n2)c1C
Activity (EA.hy 926 [1]): Active

CCCCC/C=C\C=C\C(O)C/C=C\C/C=C\CCCC(=O)O (stereo not given)
Activity (EA.hy 926 [5]): Active
Activity (EA.hy 926 [6]): Active
